# Data: patent US20230279020A9, “CARM1 INHIBITORS AND USES THEREOF” (Epizyme, Inc., priority 2013, published 2023)
# pIC50: −log10 of the molar value.
# Target: Human CARM1 (PRMT4) (Homo sapiens (Human), UniProt Q86X55)
# Assay: CARM1 enzyme assay on peptide substrate (3H-SAM Flashplate)
# Conditions: Biochemical potencies, classification codes; read-out: Biochem IC50
# Excerpt: S-adenosylmethionine (SAM), S-adenosylhomocysteine (SAH), bicine, Tween20, dimethylsulfoxide (DMSO), bovine skin gelatin (BSG), sodium butyrate and Tris(2-carboxyethyl)phosphine hydrochloride solution (TCEP) were purchased from Sigma-Aldrich at the highest level of purity possible. ^3H-SAM was purchase from American Radiolabeled Chemicals with a specific activity of 80 Ci/mmol. 384-well streptavidin Flashplates were purchased from PerkinElmer.
# Peptide representative of human histone H3 residues 16-30 was synthesized with an N-terminal linker-affinity tag motif and a C-terminal amide cap by 21st Century Biochemicals. […] The sequence was Biot-Ahx-[…]-amide and contained a monomethylated arginine at position 26 (SEQ ID NO.:1).
# The gene sequence encoding isoform1 containing a deletion of amino acids 539-561 was amplified subsequently and subcloned into pFastBacMam (Viva Biotech).
# Recombinant baculovirus were generated according to Bac-to-Bac kit instructions (Life Technologies). Protein over-expression was accomplished by infecting exponentially growing HEK 293F cell culture at 1.3×10^6cell/ml with virus (MOI=10) in the presence of 8 mM sodium butyrate. Infections were carried out at 37° C. for 48 hours, harvested by centrifugation, and stored at −80° C. for purification.
# Expressed full-length human Flag- and His-tagged CARM1 protein was purified from cell paste by anti-flag M2 affinity chromatography with resin equilibrated with buffer containing 20 mM Tris, 150 mM NaCl, 5% glycerol, pH 7.8. Column was washed with 500 mM NaCl in buffer A and Flag-CARM1-His was eluted with 200 ug/ml FLAG peptide in buffer A. Pooled fractions were dialyzed in 20 mM Tris, 150 mM NaCl, 5% glycerol and 1 mM DTT, pH 7.8.
# The assays were all performed in a buffer consisting of 20 mM Bicine (pH=7.6), 1 mM TCEP, 0.005% BSG, and 0.002% Tween 20, prepared on the day of use. Compounds in 100% DMSO (1 ul) were spotted into a polypropylene 384-well V-bottom plates (Greiner) using a Platemate Plus outfitted with a 384-channel head (Thermo Scientific). DMSO (1 ul) was added to Columns 11, 12, 23, 24, rows A-H for the maximum signal control and 1 ul of SAH, a known product and inhibitor of CARM1, was added to columns 11, 12, 23, 24, rows I-P for the minimum signal control. A cocktail (40 ul) containing the CARM1 enzyme was added by Multidrop Combi (Thermo-Fisher). The compounds were allowed to incubate with CARM1 for 30 min at room temperature, then a cocktail (10 ul) containing ^3H-SAM and peptide was added to initiate the reaction (final volume=51 ul). The final concentrations of the components were as follows: CARM1 was 0.25 nM, ^3H-SAM was 30 nM, peptide was 250 nM, SAH in the minimum signal control wells was 1 mM, and the DMSO concentration was 2%. The assays were stopped by the addition of non-radiolabeled SAM (10 ul) to a final concentration of 300 uM, which dilutes the ^3H-SAM to a level where its incorporation into the peptide substrate is no longer detectable. 50 ul of the reaction in the 384-well polypropylene plate was then transferred to a 384-well Flashplate and the biotinylated peptides were allowed to bind to the streptavidin surface for at least 1 hour before being washed once with 0.1% Tween20 in a Biotek ELx405 plate washer. The plates were then read in a PerkinElmer TopCount plate reader to measure the quantity of ^3H-labeled peptide bound to the Flashplate surface, measured as disintegrations per minute (dpm) or alternatively, referred to as counts per minute (cpm).
# where dpm=disintegrations per minute, cmpd=signal in assay well, and min and max are the respective minimum and maximum signal controls.
# where top and bottom are the normally allowed to float, but may be fixed at 100 or 0 respectively in a 3-parameter fit. The Hill Coefficient normally allowed to float but may also be fixed at 1 in a 3-parameter fit. Y is the % inhibition and X is the compound concentration.
# Human CARM1 (PRMT4), sequence (Q86X55 other isoform, or with tags, fused parts or gaps isoform Q86X55-1): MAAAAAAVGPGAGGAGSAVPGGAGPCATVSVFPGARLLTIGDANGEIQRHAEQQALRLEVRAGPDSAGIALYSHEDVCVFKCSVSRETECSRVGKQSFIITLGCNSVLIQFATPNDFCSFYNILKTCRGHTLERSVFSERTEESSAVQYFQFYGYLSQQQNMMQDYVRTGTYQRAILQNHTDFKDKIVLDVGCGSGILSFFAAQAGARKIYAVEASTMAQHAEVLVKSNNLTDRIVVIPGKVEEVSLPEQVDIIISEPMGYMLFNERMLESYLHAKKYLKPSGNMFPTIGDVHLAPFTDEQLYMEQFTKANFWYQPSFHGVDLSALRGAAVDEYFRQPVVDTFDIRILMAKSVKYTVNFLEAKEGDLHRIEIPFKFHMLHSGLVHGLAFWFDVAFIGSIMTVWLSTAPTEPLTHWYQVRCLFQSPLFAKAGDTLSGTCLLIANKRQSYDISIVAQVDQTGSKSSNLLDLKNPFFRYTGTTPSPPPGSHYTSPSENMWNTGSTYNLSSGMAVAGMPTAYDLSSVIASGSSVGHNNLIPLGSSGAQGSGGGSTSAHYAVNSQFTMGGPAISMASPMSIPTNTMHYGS
row,SMILES,pIC50
1,CCN1CCN(c2cc(-c3c(C)noc3C)nc(-c3cccc(OCC(O)CNC)c3)n2)CC1 (stereo not shown) [Example 20-1a],> 7.00
2,CNCC(O)COc1cccc(-c2nc(-c3c(C)noc3C)c(C)c(N(C)[C@H]3C[C@@](C)(OC)C3)n2)c1 (stereo partly shown) [Example 20-3],> 7.00
3,CNCC(O)COc1cccc(-c2nc(Nc3cncnc3)cc(-c3c(C)noc3C)n2)c1 (stereo not shown) [Example 21-1a],> 7.00
4,CNCC(O)COc1cc(Cl)cc(-c2nc(NC3CCN(CC(F)F)CC3)c(C)c(-c3c(C)noc3C)n2)c1 (stereo not shown) [Example 21-3],> 7.00
5,CNCC(O)COc1cccc(-c2nc(NC(C)C)cc(N(C)C3CCOCC3)n2)c1 (stereo not shown) [Example 22-1],> 7.00
6,CNCC(O)COc1cc(Cl)cc(-c2nc(NC3CCN(C4CC4)CC3)c(C)c(-c3c(C)noc3C)n2)c1 (stereo not shown) [Example 22-3],> 7.00
7,CNCC(O)COc1cccc(-c2nc(-c3cccc(C#N)c3)cc(N(C)CCC#N)n2)c1 (stereo not shown) [Example 24-1],> 7.00
8,CCOC(=O)N1CCOC[C@H]1CNc1nc(-c2cc(OC[C@@H](O)CNC)ccc2Cl)nc(-c2c(C)noc2C)c1C [Example 24-3],> 7.00
9,CNCC(O)COc1cc(OC)cc(-c2nc(C3CC3)cc(N(C)C3CCOCC3)n2)c1 (stereo not shown) [Example 25-1],> 7.00
10,CCOC(=O)N1CCOC[C@H]1CNc1nc(-c2cc(OC[C@H](O)CNC)ccc2Cl)nc(-c2c(C)noc2C)c1C [Example 25-3],> 7.00
11,CNCC(O)COc1cccc(-c2nc(N[C@H]3CCOC3)c(C)c(N3CCOCC3)n2)c1 (stereo partly shown) [Example 26-1],> 7.00
12,CNC[C@H](O)COc1ccc(F)c(-c2nc(NC3CCN(C(=O)OC)CC3)c(C)c(-c3c(C)noc3C)n2)c1 [Example 26-3],> 7.00
13,CNCC(O)COc1cccc(-c2nc(NC)cc(-c3c(C)noc3C)n2)c1 (stereo not shown) [Example 27-1a],> 7.00
14,CCOC(=O)N1CCCCC1CNc1nc(-c2cc(OC[C@@H](O)CNC)ccc2Cl)nc(-c2c(C)noc2C)c1C (stereo partly shown) [Example 27-3],> 7.00
15,CCOC(=O)N1CCN(c2cc(-c3c(C)noc3C)nc(-c3cccc(OCC(O)CNC)c3)n2)CC1 (stereo not shown) [Example 28-1a],> 7.00
16,CCOC(=O)N1CCCCC1CNc1nc(-c2cc(OC[C@H](O)CNC)ccc2Cl)nc(-c2c(C)noc2C)c1C (stereo partly shown) [Example 28-3],> 7.00
17,CNCC(O)COc1cccc(-c2nc(NCCOC)cc(-c3cc4ccccc4o3)n2)c1 (stereo not shown) [Example 29-1],> 7.00
18,CNCC(O)COc1cccc(-c2nc(-c3c(C)noc3C)cc(N3CCNC(C(=O)O)C3)n2)c1 (stereo not shown) [Example 29-1a],> 7.00
19,CNCC(O)COc1ccc(Cl)c(-c2nc(NC3CCOCC3)c(C)c(-c3c(C)noc3C)n2)c1 (stereo not shown) [Example 29-3],> 7.00
20,CNCC(O)COc1cccc(-c2nc(-c3c(C)noc3C)cc(N3CCN(C4CC4)CC3)n2)c1 (stereo not shown) [Example 30-1a],> 7.00
21,CNCC(O)COc1ccc(Cl)c(-c2nc(NCC3CCOC3)c(C)c(-c3c(C)noc3C)n2)c1 (stereo not shown) [Example 30-3],> 7.00
22,CNCC(O)COc1cccc(-c2nc(NC3CCOC3)cc(-c3c(C)noc3C)n2)c1 (stereo not shown) [Example 31-1a],> 7.00
23,CNCC(O)COc1ccc(Cl)c(-c2nc(NCC3CCCCO3)c(C)c(-c3c(C)noc3C)n2)c1 (stereo not shown) [Example 31-3],> 7.00
24,CNCC(O)COc1cccc(-c2nc(-c3cccnc3)cc(N(C)C3CCOCC3)n2)c1 (stereo not shown) [Example 32-1],> 7.00
25,CNCC(O)COc1cccc(-c2nc(N[C@H]3CC[C@H](O)CC3)cc(-c3c(C)noc3C)n2)c1 (stereo partly shown) [Example 32-1a],> 7.00
26,CNC[C@@H](O)COc1cccc(-c2nc(NC3CCN(C(=O)OC)C(C)C3)c(C)c(-c3c(C)noc3C)n2)c1 (stereo partly shown) [Example 32-3],> 7.00

row,SMILES,pIC50
1,CNCC(O)COc1cccc(-c2nc(NC3CCOCC3)cc(-c3c(C)noc3C)n2)c1 (stereo not shown) [Example 33-1],> 7.00
2,CNCC(O)COc1cccc(-c2nc(N[C@H]3CC[C@@H](O)CC3)cc(-c3c(C)noc3C)n2)c1 (stereo partly shown) [Example 33-1a],> 7.00
3,CNC[C@H](O)COc1cccc(-c2nc(NC3CCN(C(=O)OC)C(C)C3)c(C)c(-c3c(C)noc3C)n2)c1 (stereo partly shown) [Example 33-3],> 7.00
4,CNCC(O)COc1cccc(-c2nc(NCCOC)cc(-c3cnn(CC(C)C)c3)n2)c1 (stereo not shown) [Example 34-1],> 7.00
5,CNCC(O)COc1cccc(-c2nc(-c3c(C)noc3C)c(C)c(N(C)C3CCOCC3)n2)c1 (stereo not shown) [Example 34-1a],> 7.00
6,CNCC(O)COc1cccc(-c2nc(-c3c(C)noc3C)c(C)c(N3CCn4ccnc4C3)n2)c1 (stereo not shown) [Example 34-3],> 7.00
7,CNCC(O)COc1cccc(-c2nc(-c3c(C)noc3C)cc(N3CCNC(C)C3)n2)c1 (stereo not shown) [Example 35-1a],> 7.00
8,CNCC(O)COc1cccc(-c2nc(-c3c(C)noc3C)c(C)c(N3Cc4cccnc4C3)n2)c1 (stereo not shown) [Example 35-3],> 7.00
9,CNCC(O)COc1cccc(-c2nc(N3CCOCC3)cc(N(C)C3CCOCC3)n2)c1 (stereo not shown) [Example 36-1],> 7.00
10,CNCC(O)COc1cccc(-c2nc(-c3c(C)noc3C)cc(N3CCNC(C)(C)C3)n2)c1 (stereo not shown) [Example 36-1a],> 7.00
11,CNCC(O)COc1ccc(Cl)c(-c2nc(O[C@H]3CCN(C(=O)OC)[C@@H](C)C3)c(C)c(-c3c(C)noc3C)n2)c1 (stereo partly shown) [Example 36-3],> 7.00
12,CNCC(O)COc1cccc(-c2nc(N3CCOCC3)c(C)c(N(C)[C@H]3CCOC3)n2)c1 (stereo partly shown) [Example 37-1],> 7.00
13,CNCC(O)COc1ccc(Cl)c(-c2nc(NC3CC4(CCN(C(=O)OC)CC4)C3)c(C)c(-c3c(C)noc3C)n2)c1 (stereo not shown) [Example 37-3],> 7.00
14,CNCC(O)COc1cccc(-c2nc(-c3c(C)noc3C)cc(N3CCN(C(C)=O)[C@@H](C)C3)n2)c1 (stereo partly shown) [Example 38-1a],> 7.00
15,CNCC(O)COc1ccc(Cl)c(-c2nc(NC3CC(O)(C(F)(F)F)C3)c(C)c(-c3c(C)noc3C)n2)c1 (stereo not shown) [Example 38-3],> 7.00
16,CNCC(O)COc1cccc(-c2nc(-c3c(C)noc3C)cc(N3CCN(C(C)=O)C[C@H]3C)n2)c1 (stereo partly shown) [Example 39-1a],> 7.00
17,CNCC(O)COc1ccc(Cl)c(-c2nc(N[C@H]3CCC[C@@H](O)C3)c(C)c(-c3c(C)noc3C)n2)c1 (stereo partly shown) [Example 39-3],> 7.00
18,CNCC(O)COc1cccc(-c2nc(-c3c(C)noc3C)cc(N3CCN[C@@H](C)C3)n2)c1 (stereo partly shown) [Example 40-1a],> 7.00
19,CNC[C@@H](O)COc1ccc(F)c(-c2nc(NC3CCN(C(=O)OC)CC3)c(C)c(-c3c(C)noc3C)n2)c1 [Example 40-3],> 7.00
20,CNCC(O)COc1cccc(-c2nc(-c3cnn(CC(C)C)c3)cc(N(C)CCC#N)n2)c1 (stereo not shown) [Example 41-1],> 7.00
21,CNCC(O)COc1cccc(-c2nc(N[C@H]3C[C@@H](O)C3)cc(-c3c(C)noc3C)n2)c1 (stereo partly shown) [Example 41-1a],> 7.00
22,CNCC(O)COc1ccc(Cl)c(-c2nc(NCC3COCCO3)c(C)c(-c3c(C)noc3C)n2)c1 (stereo not shown) [Example 41-3],> 7.00
23,CNCC(O)COc1cccc(-c2nc(NCCCN3CCCC3=O)cc(C3=CCCC3)n2)c1 (stereo not shown) [Example 42-1],> 7.00
24,CNCC(O)COc1cccc(-c2nc(-c3c(C)noc3C)cc(N3CCC4(CC3)NC(=O)NC4=O)n2)c1 (stereo not shown) [Example 42-1a],> 7.00
25,CCOC(=O)N1CCOC[C@@H]1CNc1nc(-c2cc(OC[C@@H](O)CNC)ccc2Cl)nc(-c2c(C)noc2C)c1C [Example 42-3],> 7.00
26,CNCC(O)COc1cccc(-c2nc(N[C@H]3C[C@H](O)C3)cc(-c3c(C)noc3C)n2)c1 (stereo partly shown) [Example 43-1a],> 7.00
